Source: patent US20030017565A1, “COMPOSITION AND METHOD FOR TREATING A POROUS ARTICLE AND USE THEREOF” (priority 1996, published 2003)

Columns and labels:
[1] = leaching of cypress blocks, Myrothecium roridum enzyme (Example 5); assay type: physicochemical; conditions: 40 ppm Example 2 enzyme, 5% LSA; for Elution Rate (%) LSA: pH 8.2-8.8; for Elution Rate (%) Chemical Agent: pH 8.2-8.8, species as bracketed (Copper, H = hinokitiol), else the agent named
Experimental: (§1) The amounts of the chemical agents and lignosulfonic acid which were eluted were calculated and compared taking the amounts of them injected upon the impregnation treatment as 100%.

[2] = leaching of Japan cedar blocks treated with LSA and chemical agents (Example 4); assay type: physicochemical; conditions: 5% LSA; for Elution Rate (%) Chemical Agent: species measured as bracketed (Copper, Zinc, Nickel, Boron, H = hinokitiol), else the agent named
Experimental: For chemical agents having low solubilities, they were added to aqueous lignosulfonic acid solution after it was warmed to 60 to 90° C., and it was cooled at 25° C. after the chemical agents were suspended, dispersed, dissolved by Vortex-Mixer, […]
The amount of lignosulfonic acid which leached off was determined by measurement of the absorbance at 280 nm, and the amount of the chemical agent which leached off was determined by complex formation and spectrophotometry using PAN (1-(2-pyridylazo)-2-naphthol, Aldrich Chemical Company) or quinalizarin (Wako Pure Chemicals), separation, identification and determination, using HPLC or gas chromatography, or atomic absorption analysis were performed, followed by calculation of the amount of the chemical agents which was eluted. When the chemical agents had absorption at 280 nm, the concentration of lignosulfonic acid was calculated by measuring the absorbance at 280 nm of the chemical agents of which the concentration was measured by the above-described method and subtracting an influence by the chemical agent from the absorbance at 280 nm of the liquid which was eluted. The amounts of the chemical agents and lignosulfonic acid which were eluted were calculated and compared taking the amounts of them injected upon the impregnation treatment as 100%.

[3] = leaching of Japan cedar blocks after initial vacuum and pressure impregnation (Example 10); assay type: physicochemical; conditions: initial vacuum then 10 atm, enzyme added, 5% LSA; for Elution Rate (%) LSA: pH 8.1-8.8; for Elution Rate (%) Chemical Agent: pH 8.1-8.8, species as bracketed (Copper, Zinc, Nickel, H = hinokitiol), else the agent named
Experimental: A reaction mixture for treating wood containing 30 ppm of the freeze-dried product described in Example 1, 5% of commercially available lignosulfonic acid, and one or more various chemical agents was prepared, and Japan cedar wood blocks (3 cm×3 cm×2 cm, butt end: 3 cm×3 cm) were subjected to pressure reduction (initial vacuum) and impregnation treatment under pressure using the reaction mixture in the same manner as in Examples 3 and 4.
The pressure reduction and pressurization were performed by setting a vessel for impregnation operation as shown in FIG. 1 in a pressure reactor (5 liter in volume), conducting initial vacuum from 600 to 720 mmHg for 30 minutes using a vacuum pump, tilting the whole apparatus to allow the treatment liquid to flow toward the wood so that the wood blocks can be dipped in the treatment liquid, and then pressurized at 10 atm for 1 hour by flowing high pressure nitrogen gas in the reactor.
The wood blocks after the impregnation treatment were further subjected to drying/macromolecularization reaction and leaching treatment in the same manner as in Examples 3 and 4. The amounts of the chemical agents and lignosulfonic acid which were eluted were calculated and compared taking the amounts of them injected upon the impregnation treatment as 100%.

[4] = leaching of cypress blocks, peroxidase + alcohol oxidase (Example 7); assay type: physicochemical; conditions: 5 U/ml peroxidase + 5 U/ml alcohol oxidase + 1% methanol; for Elution Rate (%) LSA: pH 8.1-8.8; for Elution Rate (%) Chemical Agent: pH 8.1-8.8, species as bracketed (Copper, Zinc, Boron, H = hinokitiol), else the agent named
Description: The peroxidase used was obtained from horse radish (Type II, Sigma) and the alcohol oxidase used was obtained from Candida boidini (Boehringer Mannheim Biochemica).

[5] = test system: Coriolus versicolor FEPRI 1030; assay: antifungal test on treated wood, weight loss; assay type: cell-based; conditions: leached wood blocks of Example 10, LSA added, enzyme added, pH of treating liquid 8.1-8.8, 26° C., 12 weeks
Experimental: (§2) After completion of the antifungal operation, the wood blocks were taken out of the incubator and hyphae on the surface thereof were removed sufficiently. After air dried for about 24 hours, the wood blocks were dried sufficiently using a drier and a desiccator in the same manner as described above and their weight was measured. Percent weight loss (%) was calculated by comparing the weight obtained with the weight before the antifungal operation.

[6] = test system: Tyromyces palustris FEPRI 0507; assay: antifungal test on treated wood, weight loss; assay type: cell-based; conditions: leached wood blocks of Example 10, LSA added, enzyme added, pH of treating liquid 8.1-8.8, 26° C., 12 weeks
Experimental: as §2

[7] = leaching of cypress blocks, bilirubin oxidase (Example 6); assay type: physicochemical; conditions: for Elution Rate (%) LSA: pH 8.1-8.8; for Elution Rate (%) Chemical Agent: pH 8.1-8.8, species as bracketed (Copper, Zinc, Nickel, Boron, H = hinokitiol), else the agent named
Description: Taking the amounts of the lignosulfonic acid (LSA) and chemical agent as injected upon the impregnation treatment as 100%, respectively, the amounts of the substances which were eluted were compared.

house termite = assay: termite preventing test on treated wood, weight reduction; assay type: in vivo; conditions: leached wood blocks of Example 10, LSA added, enzyme added, pH 8.1-8.5, about 40 cm from termite nest, 2 months
Description: The wood blocks were placed on the soil at a distance of about 40 cm around the nest of house termite. After they were left to stand for 2 months, termite preventive properties were observed. […] Then, the dry weight thus obtained was compared with the weight of the wood blocks before the placement on the soil, thus calculating a weight reduction rate.

[8] = leaching of Japan cedar blocks, treating mixture with tung oil (Example 8); assay type: physicochemical; conditions: Example 1 enzyme, 5% LSA, 2,000 ppm tung oil
Experimental: as §1

[9] = leaching of Japan cedar blocks after reduced pressure impregnation (Example 3); assay type: physicochemical; conditions: no LSA, enzyme not added, pH 4.1
Experimental: The pH was adjusted with sodium hydroxide or sulfuric acid. The reduced pressure impregnation operation was performed by a handy method, i.e., by applying a reduced pressure of 650 to 700 mmHg for 1 hour after dipping the Japan cedar blocks in the treatment liquid and then keeping the blocks at atmospheric pressure for 30 minutes as they were dipped in the treatment liquid. By measuring the weights of each block before and after the impregnation treatment, it was confirmed that as a result of the pressure reduction treatment operation, a sufficient amount of the treating liquid (10 to 14 g) was injected in the blocks. Further, the wood blocks after the impregnation treatment were placed in an incubator at 28° C., for 5 days to effect drying and macromolecularization reaction.

[10] = copper retention rate in Japan cedar sapwood after three leachings (Example 23); assay type: physicochemical; conditions: pH of treating liquid 4.6, three leachings of 8 hours
Experimental: Aqueous solutions having the compositions listed in table 15 below were prepared and adjusted to pH 8.5 with sodium hydroxide. Those compositions which contained no ethylenediamine (EDA) nor ethanolamine (MEA) were tested at pH 4.5 since copper is deposited as copper hydroxide in alkaline regions. […] The wood blocks were taken out of the solutions and air-dried at 28 ° C. for 72 hours and then dried in a forced air circulation drier at 60° C. for 48 hours. After the drying, the wood blocks were submerged in 10 fold volume of deionized water at 25° C. with stirring at 300 rpm for 8 hours for leaching. This operation was repeated three times. The rate of copper fixed to wood was calculated from the sum of the amounts of eluted copper ions by the three elution operations to the total amount of copper ions in the solution impregnated in the wood.

[11] = in the absence of enzyme (comparison), pH 8.1-8.8
[12] = in the presence of enzyme, Japan cedar, pH of treating agent 8.1-8.8
[13] = in the presence of enzyme, pH 8.1-8.8

Compound	Elution Rate (%) LSA [1] [%]	Elution Rate (%) Chemical Agent [1] [%]	Elution Rate (%) LSA [2, 11] [%]	Elution Rate (%) Chemical Agent [2, 11] [%]	Elution Rate (%) LSA [2, 12] [%]	Elution Rate (%) Chemical Agent [2, 13] [%]	Elution Rate (%) LSA [3] [%]	Elution Rate (%) Chemical Agent [3] [%]	Elution Rate (%) LSA [4] [%]	Elution Rate (%) Chemical Agent [4] [%]	Weight Loss (%) Coriolus versicolor [5] [%]	Weight Loss (%) Tyromyces palustris [6] [%]	Elution Rate (%) LSA [7] [%]	Elution Rate (%) Chemical Agent [7] [%]	Weight Reduction Rate (%) (house termite)	Elution Rate (%) LSA ([8]; pH 8.1-8.5) [%]	Elution Rate (%) Chemical Agent ([8]; pH 8.1-8.5, species as bracketed (Copper, Zinc, Nickel, H = hinokitiol), else the agent named) [%]	Elution Rate (%) Copper [9] [%]	Copper Retention Rate (%) ([10]; enzyme added (20 ppm))	Copper Retention Rate (%) ([10]; enzyme not added)
O=C(OC[C@H]1O[C@@H](OC(=O)c2cc(O)c(O)c(OC(=O)c3cc(O)c(O)c(O)c3)c2)[C@H](OC(=O)c2cc(O)c(O)c(OC(=O)c3cc(O)c(O)c(O)c3)c2)[C@@H](OC(=O)c2cc(O)c(O)c(OC(=O)c3cc(O)c(O)c(O)c3)c2)[C@@H]1OC(=O)c1cc(O)c(O)c(OC(=O)c2cc(O)c(O)c(O)c2)c1)c1cc(O)c(O)c(OC(=O)c2cc(O)c(O)c(O)c2)c1 [500 ppm Tannic acid, Tannic acid]	6.8	8.7	24.2	21.0	3.8	4.0	2.3	3.1	9.2	10.3	10.8	12.9	6.6	8.3						
CC(C)c1cccc(=O)c(O)c1 [1000 ppm Hinokitiol, Hinokitiol]	2.2	7.2	24.2	14.4	0.6	3.1	0.4	2.3	4.5	6.2	1.5	2.2	1.7	5.4	2.2	1.1	0.5			
O=S(=O)([O-])[O-].[Cu+2] [0.04 M CuSO4, copper (II) sulfate]																		58.5	19.3	21.8
(+)-Catechin · H2O [1000 ppm (+)-Catechin · H2O]	5.2	6.6	23.4	11.3	2.7	2.8	2.1	2.0	5.3	8.7	8.3	9.9	4.4	6.3						
